The results in this text go back to PubChem BioAssay (NCI).

Test systems include EKVX NSCLC; MDA-MB-231 breast; OVCAR-3 ovarian; PC-3 prostate; SF-539 CNS; SN12C renal; TK-10 renal; U251 CNS; A549 NSCLC; RPMI-8226 leukemia.
What all share (experiment): growth of human tumour cells (NCI), 48 h

SMILES strings stand for the structures.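 Five concentrations, 48 hours, 96-well plates. GI50 = concentration required for 50% inhibition of growth. At the TGI there is no net growth.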 Bounds are passed on as bounds.

For the compound `CC1(C)Cc2c(Br)c(Br)c(Br)c(OCC(O)CN3CCN(c4ccccn4)CC3)c2O1` (stereo not given), the GI50 in the assay on EKVX NSCLC is 11.3 µM; with MDA-MB-231 breast, 12.3 µM; in the assay with OVCAR-3 ovarian, 9.54 µM; with PC-3 prostate, 5.58 µM; in the assay with SF-539 CNS it was 13.6 µM; in the assay on SN12C renal it was 14.4 µM. The GI50 in the assay on TK-10 renal is 14.3 µM; in the assay on U251 CNS, 11.3 µM. The TGI came to 43.2 µM in the assay with EKVX NSCLC; 28.2 µM in the assay on MDA-MB-231 breast; 23.4 µM with OVCAR-3 ovarian; 22.5 µM with PC-3 prostate; 29.2 µM in the assay with SF-539 CNS; 28.4 µM in the assay on SN12C renal. Besides, the TGI in the assay on TK-10 renal was 30.8 µM; in the assay on U251 CNS, 23.3 µM.

Regarding `CCN1C(=NCCO)NS(=O)(=O)c2ccccc21`, the TGI in the assay on A549 NSCLC, with EKVX NSCLC, in the assay with MDA-MB-231 breast, with OVCAR-3 ovarian, with PC-3 prostate and in the assay on SF-539 CNS was greater than 100 µM in each case. Further, the TGI in the assay with SN12C renal, in the assay on TK-10 renal and with U251 CNS was greater than 100 µM throughout.

As to `COc1cc(C(C)O)c[n+](CCC2CNc3ccccc32)c1` (stereo not given), the TGI with A549 NSCLC, in the assay on EKVX NSCLC, in the assay with OVCAR-3 ovarian, in the assay on RPMI-8226 leukemia, in the assay with SF-539 CNS and in the assay on SN12C renal was greater than 100 µM each time. Further, in the assay on U251 CNS, the TGI is greater than 100 µM.

In the case of `CC(=O)c1ccc(NC(=O)C(=O)C(C#N)CC(C)(C)C=O)cc1` (stereo not given), the TGI with A549 NSCLC, in the assay with EKVX NSCLC, in the assay with OVCAR-3 ovarian, in the assay on RPMI-8226 leukemia, with SF-539 CNS and in the assay with SN12C renal was greater than 100 µM each time. In addition, the TGI in the assay on TK-10 renal and in the assay with U251 CNS was greater than 100 µM in each case.

Regarding `COc1ccc(NC(=O)CC(=O)n2nc(C)c(N=Nc3ccccc3C(=O)O)c2C)cc1`, the TGI with A549 NSCLC, with EKVX NSCLC, in the assay on OVCAR-3 ovarian, with RPMI-8226 leukemia, in the assay with SF-539 CNS and in the assay on SN12C renal was greater than 100 µM in each case. The TGI in the assay on TK-10 renal and in the assay with U251 CNS was greater than 100 µM in each case.

With `C=C(C(=C)P(=S)(C(C)C)C(C)C)P(=S)(C(C)C)C(C)C`, the TGI in the assay on A549 NSCLC, in the assay on EKVX NSCLC, with OVCAR-3 ovarian, in the assay on RPMI-8226 leukemia, with SF-539 CNS and in the assay on SN12C renal was greater than 100 µM each time. Besides, the TGI with TK-10 renal and with U251 CNS was greater than 100 µM in each case.

`Cc1c2c(c(C)c3c1[nH]c1ccccc13)CN(C)CC2`: the TGI in the assay on A549 NSCLC is greater than 100 µM; in the assay on OVCAR-3 ovarian, 52.7 µM; in the assay on RPMI-8226 leukemia it was 67 µM; with SF-539 CNS, 27.6 µM; with SN12C renal it was 76.6 µM; with TK-10 renal, 51.1 µM. In the assay with U251 CNS, this compound showed a TGI of 26 µM.

For `OCCN(CCO)c1cccc(N(CCO)CCO)n1`, the TGI in the assay with A549 NSCLC, in the assay on EKVX NSCLC, in the assay on OVCAR-3 ovarian, with RPMI-8226 leukemia, with TK-10 renal and with U251 CNS was greater than 100 µM in each case.

With `c1ccc(OCc2nnc3n2N=C(c2ccccc2)CS3)cc1`, the TGI in the assay on A549 NSCLC, with OVCAR-3 ovarian, in the assay on RPMI-8226 leukemia, in the assay on SF-539 CNS, with SN12C renal and with TK-10 renal was greater than 100 µM in each case. The compound also displayed a TGI with U251 CNS greater than 100 µM.

Regarding `CC(=O)c1ccc(NC(=O)COC(=O)c2cccc3c(=O)c4ccccc4[nH]c23)cc1`, the TGI in the assay on A549 NSCLC is greater than 100 µM; in the assay on EKVX NSCLC, greater than 100 µM; in the assay on OVCAR-3 ovarian it was 69.4 µM; with SF-539 CNS, 33.9 µM; in the assay on SN12C renal, greater than 100 µM; in the assay on TK-10 renal, 60.6 µM. In the assay on U251 CNS, this compound yielded a TGI of 86.5 µM.

For `COc1cccc(SSc2cccc(OC)c2C(=O)O)c1C(=O)O`, the TGI in the assay on A549 NSCLC, in the assay on EKVX NSCLC, with OVCAR-3 ovarian, with RPMI-8226 leukemia, with SF-539 CNS and with SN12C renal was greater than 100 µM in each case. For the same compound, the TGI in the assay on TK-10 renal and in the assay with U251 CNS was greater than 100 µM throughout.

Turning to `Cl.Fc1c[c-]c(-c2ccccn2)c(F)c1.[Pt].c1ccc([PH+](C[PH+](c2ccccc2)c2ccccc2)c2ccccc2)cc1`, the GI50 is 0.206 µM in the assay with A549 NSCLC; 0.261 µM with EKVX NSCLC; 0.184 µM in the assay on OVCAR-3 ovarian; 0.276 µM in the assay with PC-3 prostate; 0.161 µM in the assay with RPMI-8226 leukemia; 0.244 µM in the assay with SF-539 CNS. Besides, in the assay with TK-10 renal, the GI50 is 0.274 µM. Further, the TGI in the assay on A549 NSCLC is 1.34 µM; in the assay on EKVX NSCLC it was 1.05 µM; in the assay on OVCAR-3 ovarian it was 0.442 µM; with PC-3 prostate, 1.14 µM; in the assay with RPMI-8226 leukemia, 0.544 µM; in the assay on SF-539 CNS, 0.677 µM. This compound also displayed a TGI in the assay with TK-10 renal of 1.43 µM.

As to `Cc1ccc(NC(=O)CCc2n[nH]c(=S)o2)cc1`, the TGI with A549 NSCLC, in the assay with EKVX NSCLC, in the assay on OVCAR-3 ovarian, in the assay on SF-539 CNS, with SN12C renal and with TK-10 renal was greater than 100 µM in each case. Also, the TGI in the assay with U251 CNS is greater than 100 µM.

`O=c1c2cc3c(cc2c2cccc4c2n1CCC4)OCO3`: the TGI with A549 NSCLC was greater than 100 µM; in the assay on EKVX NSCLC it was 99.5 µM; in the assay with OVCAR-3 ovarian, greater than 100 µM; in the assay with RPMI-8226 leukemia, greater than 100 µM; in the assay with SF-539 CNS, greater than 100 µM; in the assay with SN12C renal it was greater than 100 µM. In addition, the TGI with TK-10 renal was greater than 100 µM; with U251 CNS, 73.5 µM.

For the compound `COc1cc2ccnc3c(=C(SC)SC)c(=O)c(c1OC)c23`, the TGI was greater than 100 µM in the assay on A549 NSCLC; 28.4 µM with OVCAR-3 ovarian; 15.9 µM in the assay with RPMI-8226 leukemia; 33 µM with SF-539 CNS; 29.9 µM in the assay on SN12C renal; 27.1 µM with TK-10 renal. The same compound had a TGI in the assay on U251 CNS greater than 100 µM.

Turning to `N#CC1=C(O)NC(O)=C(C#N)C1c1ccc(C2C(C#N)=C(O)NC(O)=C2C#N)cc1`, the TGI in the assay on A549 NSCLC, with EKVX NSCLC, in the assay on OVCAR-3 ovarian, in the assay on RPMI-8226 leukemia, in the assay on SF-539 CNS and in the assay on SN12C renal was greater than 100 µM in each case. Moreover, the TGI in the assay with TK-10 renal and in the assay on U251 CNS was greater than 100 µM in each case.
